# In ChEMBL document CHEMBL1122477, “Neuroleptic activity and dopamine-uptake inhibition in 1-piperazino-3-phenylindans” (J Med Chem, 1983):
# Tests used:
# [1] = target: T1, Sodium-dependent serotonin transporter (Rattus norvegicus, UniProt P31652)
# Mus musculus [2] = species: Mus musculus
# Description: (§1) Compound (administered intraperitoneally) was assessed for neuroleptic activity to antagonize methyl phenidate induced stereotypes in mice
# Adrenergic receptor beta = Adrenergic receptor beta (Rattus norvegicus, UniProt P18090+P10608+P26255)
# Description: (§2) Effect on synaptosomal uptake inhibition of Noradrenaline (NA)
# Rattus norvegicus [3] = assay: Tested orally in rats for antagonism of stereotypies induced by amphetamine; type: functional
# Rattus norvegicus [4] = species: Rattus norvegicus; assay: animal or person; settings: po
# Description: (§3) Ability to induce catalepsy in rats perorally, an effect normally related to clinical extrapyramidal side effects
# Rattus norvegicus [5] = species: Rattus norvegicus
# Description: as §3
# [6] = target: T1, Sodium-dependent serotonin transporter; assay: Effect on synaptosomal uptake inhibition of 5-hydroxytryptamine (5-HT); type: functional
# Mus musculus [7] = species: Mus musculus; assay: Assessed for thymoleptic activity by its ability to antagonize tetrabenazine ptosis in mice; type: functional
# [8] = target: Norepinephrine transporter (Rattus norvegicus, UniProt Q9WTR4)
# Chain of Norepinephrine transporter (Q9WTR4 whole entry): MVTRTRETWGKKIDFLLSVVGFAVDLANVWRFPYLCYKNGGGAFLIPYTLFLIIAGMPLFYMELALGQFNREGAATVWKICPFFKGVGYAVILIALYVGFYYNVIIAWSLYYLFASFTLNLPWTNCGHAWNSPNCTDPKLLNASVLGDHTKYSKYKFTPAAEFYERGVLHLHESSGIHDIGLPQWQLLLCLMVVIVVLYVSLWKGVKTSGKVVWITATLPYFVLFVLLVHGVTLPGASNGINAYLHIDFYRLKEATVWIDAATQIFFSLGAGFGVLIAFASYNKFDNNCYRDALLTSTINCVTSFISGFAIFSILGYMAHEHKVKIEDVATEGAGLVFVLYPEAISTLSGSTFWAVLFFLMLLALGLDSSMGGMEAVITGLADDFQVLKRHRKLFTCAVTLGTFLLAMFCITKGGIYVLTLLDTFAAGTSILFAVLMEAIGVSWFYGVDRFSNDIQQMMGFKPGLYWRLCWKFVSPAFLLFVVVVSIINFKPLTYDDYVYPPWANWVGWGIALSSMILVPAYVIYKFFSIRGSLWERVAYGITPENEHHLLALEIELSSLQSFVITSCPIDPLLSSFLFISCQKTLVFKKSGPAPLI
# Description: as §2
# [9] = target: Sodium-dependent dopamine transporter (Rattus norvegicus, UniProt P23977)
# Chain of Sodium-dependent dopamine transporter (P23977 whole entry): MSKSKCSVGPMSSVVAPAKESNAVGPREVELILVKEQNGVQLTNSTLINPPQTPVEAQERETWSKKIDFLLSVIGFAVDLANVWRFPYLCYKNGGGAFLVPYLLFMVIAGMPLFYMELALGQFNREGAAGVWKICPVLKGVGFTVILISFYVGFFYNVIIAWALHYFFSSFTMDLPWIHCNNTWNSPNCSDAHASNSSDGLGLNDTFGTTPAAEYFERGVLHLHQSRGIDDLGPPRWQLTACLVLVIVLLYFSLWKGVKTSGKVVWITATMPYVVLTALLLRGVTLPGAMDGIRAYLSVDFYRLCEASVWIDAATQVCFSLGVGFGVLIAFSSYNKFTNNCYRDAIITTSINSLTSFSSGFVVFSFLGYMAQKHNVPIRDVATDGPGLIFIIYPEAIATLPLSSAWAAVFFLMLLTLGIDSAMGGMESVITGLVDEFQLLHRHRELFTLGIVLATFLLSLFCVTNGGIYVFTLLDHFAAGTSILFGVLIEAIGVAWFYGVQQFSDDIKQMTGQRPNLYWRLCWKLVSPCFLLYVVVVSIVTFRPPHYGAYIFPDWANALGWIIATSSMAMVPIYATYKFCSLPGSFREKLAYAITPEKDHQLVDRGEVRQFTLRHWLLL
# Description: Effect on synaptosomal uptake inhibition of Dopamine transporter
# Mus musculus [10] = species: Mus musculus; assay: Compound was assessed for thymoleptic activity by its ability to antagonize tetrabenazine ptosis in mice; type: functional
# Mus musculus [11] = species: Mus musculus; assay: animal or person; settings: ip
# Description: as §1
# Rattus norvegicus [12] = assay: Compound was tested orally (po) in rats for antagonism of stereotypies induced by amphetamine; value ranges from 2.5-4.7; type: functional
# Rattus norvegicus [13] = assay: Compound was tested orally (po) in rats for its ability to induce catalepsy, an effect normally related to clinical extrapyramidal side effects;value ranges from 1.3-3.4; type: functional
# [14] = Rattus norvegicus, po, read-out: ED50
# Description for Dopamine receptor: Effect on synaptosomal uptake inhibition of Dopamine receptor
# T1 sequence (P31652 whole entry): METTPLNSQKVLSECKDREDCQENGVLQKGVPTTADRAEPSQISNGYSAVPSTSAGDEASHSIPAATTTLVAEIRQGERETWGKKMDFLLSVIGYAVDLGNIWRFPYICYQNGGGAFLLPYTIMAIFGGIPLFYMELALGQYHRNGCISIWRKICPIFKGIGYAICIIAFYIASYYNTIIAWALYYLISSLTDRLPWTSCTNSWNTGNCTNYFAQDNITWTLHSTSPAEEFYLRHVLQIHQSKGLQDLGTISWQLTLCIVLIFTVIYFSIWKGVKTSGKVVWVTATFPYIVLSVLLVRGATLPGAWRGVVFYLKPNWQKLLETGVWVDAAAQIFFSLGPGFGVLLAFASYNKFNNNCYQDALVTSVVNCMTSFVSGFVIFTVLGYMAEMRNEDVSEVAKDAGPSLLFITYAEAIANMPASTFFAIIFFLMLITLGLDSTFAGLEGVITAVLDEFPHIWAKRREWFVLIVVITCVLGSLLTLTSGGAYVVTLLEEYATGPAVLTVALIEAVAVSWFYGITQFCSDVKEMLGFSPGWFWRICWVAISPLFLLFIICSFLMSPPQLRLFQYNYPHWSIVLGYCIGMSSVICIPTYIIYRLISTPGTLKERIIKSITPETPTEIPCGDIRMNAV
SMILES,IC50 [1] [nM],ED50 (Mus musculus [2]) [µM/kg],IC50 [6] [nM],IC50 [8] [nM],IC50 (Dopamine receptor) [nM],also measured
Cl.Cl.OCCN1CCN(C2CC(c3ccc(F)cc3)c3ccc(F)cc32)CC1 (centres undefined),2300,7,–,–,–,IC50 (Adrenergic receptor beta): 150 nM; ED50 (Rattus norvegicus [3]): 14 µM/kg; ED50 (Rattus norvegicus [4]): 184 µmol/kg
OCCN1CCN(C2CC(c3ccc(F)cc3)c3ccc(F)cc32)CC1 (centres undefined),9700,>112,–,–,–,IC50 (Adrenergic receptor beta): 140 nM; ED50 (Rattus norvegicus [3]): >112 µM/kg
OCC(O)CN1CCN(C2CC(c3ccc(F)cc3)c3ccc(F)cc32)CC1 (centres undefined),–,>51,–,–,–,ED50 (Rattus norvegicus [5]): >102 µM/kg
OCCCN1CCN(C2CC(c3ccc(Cl)c(Cl)c3)c3ccccc32)CC1 (centres undefined),–,–,120,6.8,15,ED50 (Mus musculus [7]): 12 µM/kg
Cl.Cl.OCCCN1CCN(C2CC(c3ccc(Cl)c(Cl)c3)c3ccccc32)CC1 (centres undefined),–,–,440,0.3,5.6,ED50 (Mus musculus [7]): 71 µM/kg
Cl.Cl.OCCCCN1CCN(C2CC(c3ccc(F)cc3)c3ccc(F)cc32)CC1 (cis isomer),1900,54,–,–,–,IC50 [9]: 9 nM; IC50 (Adrenergic receptor beta): 30 nM
Cl.Cl.OCCN1CCN(C2CC(c3ccc(F)cc3)c3ccc(C(F)(F)F)cc32)CC1 (cis isomer),–,>80,–,–,–,IC50 [9]: 93 nM; ED50 (Rattus norvegicus [5]): >166 µM/kg
Cl.Cl.OCCN1CCN(C2CC(c3ccc(Cl)cc3Cl)c3ccccc32)CC1 (cis isomer),–,–,–,–,2000,ED50 (Mus musculus [7]): >94 µM/kg
Cl.Cl.Clc1ccc(C2CC(N3CCN(C/C=C/c4ccccc4)CC3)c3ccccc32)cc1Cl (cis isomer),–,–,–,–,35,ED50 (Mus musculus [7]): >73 µM/kg
Cl.Cl.OCCN1CCN(C2CC(c3ccc(Cl)c(Cl)c3)c3ccccc32)CC1 (cis isomer),–,–,600,10,12,"ED50 (Mus musculus [7]; Mus musculus, read-out: ED50): 72 µmol/kg"
CN(C)C[C@H]1C2CCC(CC2)[C@H]1c1ccc(Cl)c(Cl)c1 (relative stereo),–,–,13,–,–,–
CN(C)C[C@@H]1C2CCC(CC2)[C@@H]1c1ccc(Cl)c(Cl)c1 (relative stereo),–,–,51,5.4,–,ED50 (Mus musculus [10]): 43 µmol/kg
"CN1CCN(C2CC(c3ccc(Cl)c(Cl)c3)c3ccccc32)CC1.Cl.Cl (single isomer, unassigned; 95)",–,–,2500,120,340,ED50 (Mus musculus [7]): >91 µM/kg
"CN1CCN(C2CC(c3ccc(Cl)c(Cl)c3)c3ccccc32)CC1.Cl.Cl (single isomer, unassigned; 96)",–,–,230,7.8,10,ED50 (Mus musculus [7]): 26 µM/kg
"CN1CCN(C2CC(c3ccc(Cl)c(Cl)c3)c3ccccc32)CC1.Cl.Cl (single isomer, unassigned; 98)",–,–,2300,910,1700,ED50 (Mus musculus [10]): > 89 µmol/kg
"CN1CCN(C2CC(c3ccc(Cl)c(Cl)c3)c3ccccc32)CC1.Cl.Cl (single isomer, unassigned; 99)",–,–,530,2.5,2.3,ED50 (Mus musculus [7]): 69 µM/kg
"CN1CCN(C2CC(c3ccc(F)cc3)c3ccc(F)cc32)CC1.Cl.Cl (single isomer, unassigned; (+))",4000,2.5,–,–,–,IC50 [9]: 1800 nM; ED50 (Rattus norvegicus [5]): 41 µM/kg; ED50 (Rattus norvegicus [3]): 15 µM/kg
CN1CCN(C2CC(c3ccc(F)cc3)c3ccc(F)cc32)CC1.Cl.Cl (stereo in doubt; 53),2000,11,–,–,–,IC50 [9]: 180 nM; ED50 (Rattus norvegicus [5]): 202 µM/kg; ED50 (Rattus norvegicus [3]): 37 µM/kg

SMILES,IC50 [1] [nM],ED50 (Mus musculus [2]) [µM/kg],IC50 [6] [nM],IC50 [8] [nM],IC50 (Dopamine receptor) [nM],also measured
CN1CCN(C2CC(c3ccc(F)cc3)c3ccc(F)cc32)CC1.Cl.Cl (stereo in doubt; 55),630,42,–,–,–,IC50 [9]: 88 nM; ED50 (Rattus norvegicus [5]): >790 µM/kg; ED50 (Rattus norvegicus [3]): >200 µM/kg
CN1CCN(C2CC(c3ccc(F)cc3)c3ccc(F)cc32)CC1.Cl.Cl (stereo in doubt; 56),6100,>95,–,–,–,IC50 [9]: 110 nM; ED50 (Rattus norvegicus [3]): >95 µM/kg
Fc1ccc(C2CC(N3CCN(C/C=C/c4ccccc4)CC3)c3cc(F)ccc32)cc1 (stereo in doubt; 63),160,–,–,–,–,ED50 (Mus musculus [11]): 57 µmol/kg; IC50 [9]: 340 nM
Cl.Cl.Fc1ccc(C2CC(N3CCN(C/C=C/c4ccccc4)CC3)c3cc(F)ccc32)cc1 (stereo in doubt; 64),400,>79,–,–,–,IC50 [9]: 210 nM
CN1CCN(C2CC(c3ccc(Cl)c(Cl)c3)c3ccccc32)CC1.Cl.Cl (stereo in doubt; 97),–,–,630,7.7,4.4,ED50 (Mus musculus [7]): 100 µM/kg
Cl.Cl.Clc1ccc(C2CC(N3CCN(C/C=C/c4ccccc4)CC3)c3ccccc32)cc1Cl (stereo in doubt; 104),–,–,–,–,100,"ED50 (Mus musculus [7]; Mus musculus, read-out: ED50): > 75 µmol/kg"
Cl.Cl.OCCCCN1CCN(C2CC(c3ccc(F)cc3)c3ccc(F)cc32)CC1 (trans isomer),610,6.5,–,–,–,IC50 [9]: 25 nM; IC50 (Adrenergic receptor beta): 19 nM; ED50 (Rattus norvegicus [3]; [14]): 7.7 µmol/kg; ED50 (Rattus norvegicus [4]): 47 µmol/kg
Cc1ccc2c(c1)C(N1CCN(CCO)CC1)CC2c1ccc(F)cc1 (trans isomer),–,–,–,–,–,ED50 (Mus musculus [11]): 7.6 µmol/kg; ED50 (Rattus norvegicus [3]; [14]): 21 µmol/kg; ED50 (Rattus norvegicus [4]): 17 µmol/kg
Cl.Cl.OCC(O)CN1CCN(C2CC(c3ccc(F)cc3)c3ccc(F)cc32)CC1 (trans isomer),–,2.9,–,–,–,ED50 (Rattus norvegicus [5]): >280 µM/kg; ED50 (Rattus norvegicus [3]; [14]): 33 µmol/kg
OCCN1CCN(C2CC(c3ccc(F)cc3)c3ccc(C(F)(F)F)cc32)CC1 (trans isomer),7000,0.07,–,–,–,IC50 [9]: 520 nM; ED50 (Rattus norvegicus [5]): 0.27 µM/kg; IC50 (Adrenergic receptor beta): 660 nM; ED50 (Rattus norvegicus [3]; [14]): 0.22 µmol/kg
Cl.Cl.OCCN1CCN(C2CC(c3ccc(Cl)cc3Cl)c3ccccc32)CC1 (trans isomer),–,–,–,–,4500,"ED50 (Mus musculus [7]; Mus musculus, read-out: ED50): > 86 µmol/kg"
OCCN1CCN(C2CC(c3ccc(F)cc3)c3ccc(Cl)cc32)CC1 (trans isomer),–,–,–,–,–,ED50 (Mus musculus [11]): 2.8 µmol/kg; ED50 (Rattus norvegicus [3]; [14]): 3.5 µmol/kg; ED50 (Rattus norvegicus [4]): 3.3 µmol/kg
CN1CCN(C2CC(c3ccc(Cl)c(Cl)c3)c3ccccc32)CC1.Cl.Cl (trans isomer),–,–,200,32,11,ED50 (Mus musculus [7]): 48 µM/kg
Cl.Cl.OCCN1CCN(C2CC(c3ccc(Cl)c(Cl)c3)c3ccccc32)CC1 (trans isomer),–,–,210,8.2,2.8,ED50 (Mus musculus [7]): 45 µM/kg
CN1CCN(C2Cc3ccccc3Sc3ccc(Cl)cc32)CC1 (centres undefined) [CLOROTEPINE],–,–,–,–,–,ED50 (Mus musculus [11]): 6.7 µmol/kg; ED50 (Rattus norvegicus [3]; [14]): 0.56 µmol/kg; ED50 (Rattus norvegicus [4]): 4.5 µmol/kg
CN1Cc2c(N)cccc2C(c2ccccc2)C1 (centres undefined) [NOMIFENSINE],–,–,–,6.6,48,–
OCCN1CCN(CC/C=C2/c3ccccc3Sc3ccc(C(F)(F)F)cc32)CC1 [Z-FLUPENTIXOL],–,–,–,–,–,ED50 (Mus musculus [11]): 0.14 µmol/kg; ED50 (Rattus norvegicus [12]): 3.5 µmol/kg; ED50 (Rattus norvegicus [13]): 2.1 µmol/kg
